Measurements as given in patent EP4610262A1, “MACROCYCLIC COMPOUND AS CDK9 INHIBITOR AND USE THEREOF” (Artivila Biopharma, priority 2022, dated 2024).

Experiments:
Assay in all cases: Kinase selectivity, inhibition rate at 10 nM (caliper mobility shift assay)
Format in all cases: biochemical
Settings in all cases: compound at 10 nM
RET = RET (Homo sapiens, UniProt P07949)
Procedure: (§1) Compounds were tested at a concentration of 10 nM with detection in duplicate wells, or tested at 10 concentrations starting from 10 µM with three-fold serial dilutions, with detection in duplicate wells.
(§2) The inhibitory effect of the compounds on the activity of CDK9 protein kinase was detected by the caliper mobility shift assay method. 250 nL of the compound at 100-fold final concentration was transferred to a target 384-well-plate with a dispenser Echo 550. A kinase solution at 2.5-fold final concentration was prepared using 1× kinase buffer. 10 µL of the kinase solution at 2.5-fold final concentration was added to the compound well and positive control well respectively. 10 µL of 1× kinase buffer was added to the negative control well. The 384-well plate was centrifuged at 1000 rpm for 30 seconds and incubated at room temperature for 10 minutes. A mixed solution of ATP and kinase substrate at 5/3-fold final concentration was prepared with 1× kinase buffer, and to the 384-well plate was added with 15 µL per well of the mixed solution of ATP and substrate at 5/3-fold final concentration to start the reaction. The plate was centrifuged at 1000 rpm for 30 seconds, shaken to mix evenly, and incubated at room temperature for a corresponding time. 30 µL of detection stopping solution was added to terminate the kinase reaction. The 384-well plate was centrifuged at 1000 rpm for 30 seconds and shaken to mix evenly. The conversion rate was read with Caliper EZ Reader. The percent conversion inhibition rate = (% positive control conversion rate mean - % sample conversion rate / (% positive control conversion rate mean - % negative control conversion rate mean). Among them: negative control wells represent the conversion rate readings of kinase buffer background wells; positive control wells represent the conversion rate readings of wells without inhibition by compound. With the log value of concentration as the x-axis and the percentage inhibition rate as the y-axis, a dose-response curve was fitted using the log (inhibitor) vs. response -Variable slope of the analysis software GraphPad Prism 5 to obtain the IC50 value of each compound on enzyme activity. Calculation formula: y=Bottom + (Top-Bottom)/(1+10^((LogIC50-x) × hillslope)), x: logarithm of inhibitor concentration; y: % inhibition rate.
(§3) According to the description of the above experiment on kinase activity inhibition, some compounds were tested for their selective inhibition rate against the kinases of CDK7, CDK9, JAK1, JAK2, JAK3, ITK, RET, TYK2, and LRRK2 at 10 nM. The results are shown in Table 3 below: (Inhibition rate range: A>50%; B: 25-49%; C: <25%): […]

JAK1 = JAK1 (Homo sapiens, UniProt P23458)
Procedure: as §1, §2, §3

ITK = ITK (Homo sapiens, UniProt Q08881)
Sequence of ITK (Q08881 whole entry): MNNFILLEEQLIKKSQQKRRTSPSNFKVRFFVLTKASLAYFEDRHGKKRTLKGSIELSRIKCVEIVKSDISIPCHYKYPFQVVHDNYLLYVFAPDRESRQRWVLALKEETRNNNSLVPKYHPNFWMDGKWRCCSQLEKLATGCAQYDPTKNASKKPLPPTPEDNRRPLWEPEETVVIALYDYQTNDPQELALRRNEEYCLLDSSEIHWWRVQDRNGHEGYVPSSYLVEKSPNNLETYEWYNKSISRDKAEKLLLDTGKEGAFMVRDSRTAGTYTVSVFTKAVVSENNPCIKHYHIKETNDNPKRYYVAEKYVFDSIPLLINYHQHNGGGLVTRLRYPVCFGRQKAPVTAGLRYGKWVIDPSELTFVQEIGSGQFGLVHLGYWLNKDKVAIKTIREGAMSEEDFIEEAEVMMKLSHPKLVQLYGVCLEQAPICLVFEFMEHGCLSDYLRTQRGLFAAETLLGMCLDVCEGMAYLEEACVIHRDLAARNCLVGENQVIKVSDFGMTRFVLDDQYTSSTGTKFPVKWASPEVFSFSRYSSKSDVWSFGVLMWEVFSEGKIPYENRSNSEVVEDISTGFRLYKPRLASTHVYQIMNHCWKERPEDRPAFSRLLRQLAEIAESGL
Procedure: as §1, §2, §3

CDK7 = CDK7 (Homo sapiens, UniProt P50613)
Sequence of CDK7 (P50613 whole entry): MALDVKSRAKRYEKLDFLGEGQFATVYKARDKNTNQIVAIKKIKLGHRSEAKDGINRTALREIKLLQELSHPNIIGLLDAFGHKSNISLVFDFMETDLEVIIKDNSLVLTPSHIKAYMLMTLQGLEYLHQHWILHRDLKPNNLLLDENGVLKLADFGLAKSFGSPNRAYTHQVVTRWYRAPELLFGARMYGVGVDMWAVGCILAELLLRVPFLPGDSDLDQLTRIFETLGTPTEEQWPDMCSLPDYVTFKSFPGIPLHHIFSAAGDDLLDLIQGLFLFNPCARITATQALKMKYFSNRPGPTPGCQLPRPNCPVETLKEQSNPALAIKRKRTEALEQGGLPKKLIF
Sequence of CDK7 (P51946 whole entry partner): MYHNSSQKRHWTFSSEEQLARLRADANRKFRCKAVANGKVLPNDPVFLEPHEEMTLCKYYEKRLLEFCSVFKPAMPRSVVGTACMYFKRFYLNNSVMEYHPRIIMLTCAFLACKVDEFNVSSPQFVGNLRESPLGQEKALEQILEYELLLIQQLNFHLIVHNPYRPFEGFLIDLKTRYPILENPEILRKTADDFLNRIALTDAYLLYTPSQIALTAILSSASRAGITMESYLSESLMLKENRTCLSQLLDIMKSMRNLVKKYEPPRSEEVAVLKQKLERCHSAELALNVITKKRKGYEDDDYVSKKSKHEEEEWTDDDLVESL
Sequence of CDK7 (P51948 whole entry partner): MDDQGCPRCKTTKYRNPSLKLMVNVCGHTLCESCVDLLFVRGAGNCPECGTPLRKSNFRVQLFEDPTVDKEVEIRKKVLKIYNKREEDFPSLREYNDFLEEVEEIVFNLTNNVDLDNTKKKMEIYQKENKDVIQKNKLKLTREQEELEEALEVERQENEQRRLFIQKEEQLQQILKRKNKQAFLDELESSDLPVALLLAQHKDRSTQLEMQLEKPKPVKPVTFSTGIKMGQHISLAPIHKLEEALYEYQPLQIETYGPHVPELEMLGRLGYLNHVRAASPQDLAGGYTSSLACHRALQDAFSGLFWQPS
Procedure: as §1, §2, §3

TYK2 = TYK2 (Homo sapiens, UniProt P29597)
Sequence of TYK2 (P29597 whole entry): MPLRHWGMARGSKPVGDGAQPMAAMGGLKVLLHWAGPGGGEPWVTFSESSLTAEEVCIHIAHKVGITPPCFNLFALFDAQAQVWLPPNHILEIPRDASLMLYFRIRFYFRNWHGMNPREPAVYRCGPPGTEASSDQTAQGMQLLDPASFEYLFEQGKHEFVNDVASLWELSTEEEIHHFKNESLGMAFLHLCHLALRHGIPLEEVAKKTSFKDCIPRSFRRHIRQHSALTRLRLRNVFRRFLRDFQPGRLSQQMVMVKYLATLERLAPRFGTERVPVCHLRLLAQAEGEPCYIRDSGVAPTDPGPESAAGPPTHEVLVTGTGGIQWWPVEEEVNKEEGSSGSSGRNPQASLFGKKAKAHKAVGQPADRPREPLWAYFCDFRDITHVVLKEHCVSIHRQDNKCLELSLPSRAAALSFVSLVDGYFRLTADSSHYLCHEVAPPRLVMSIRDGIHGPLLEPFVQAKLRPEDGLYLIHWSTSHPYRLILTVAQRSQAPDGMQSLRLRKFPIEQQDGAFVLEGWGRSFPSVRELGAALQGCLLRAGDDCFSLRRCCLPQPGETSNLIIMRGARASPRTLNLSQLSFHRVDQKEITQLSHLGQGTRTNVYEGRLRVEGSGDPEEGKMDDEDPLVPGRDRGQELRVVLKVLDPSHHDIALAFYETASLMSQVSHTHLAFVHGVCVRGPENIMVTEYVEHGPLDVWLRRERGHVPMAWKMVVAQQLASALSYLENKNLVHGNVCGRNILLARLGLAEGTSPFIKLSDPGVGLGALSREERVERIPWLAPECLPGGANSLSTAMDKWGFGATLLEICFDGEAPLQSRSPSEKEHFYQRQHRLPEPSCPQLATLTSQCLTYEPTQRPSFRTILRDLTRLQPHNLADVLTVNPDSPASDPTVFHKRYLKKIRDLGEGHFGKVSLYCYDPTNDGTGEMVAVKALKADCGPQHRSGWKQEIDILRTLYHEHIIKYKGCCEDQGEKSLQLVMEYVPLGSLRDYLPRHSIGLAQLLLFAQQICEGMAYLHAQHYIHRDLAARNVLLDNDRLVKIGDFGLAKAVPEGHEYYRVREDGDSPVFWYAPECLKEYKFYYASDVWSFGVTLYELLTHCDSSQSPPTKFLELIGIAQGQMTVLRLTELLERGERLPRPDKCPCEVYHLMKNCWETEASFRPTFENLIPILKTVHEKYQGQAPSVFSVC
Procedure: as §1, §2, §3

JAK3 = JAK3 (Homo sapiens, UniProt P52333)
Sequence of JAK3 (P52333 whole entry): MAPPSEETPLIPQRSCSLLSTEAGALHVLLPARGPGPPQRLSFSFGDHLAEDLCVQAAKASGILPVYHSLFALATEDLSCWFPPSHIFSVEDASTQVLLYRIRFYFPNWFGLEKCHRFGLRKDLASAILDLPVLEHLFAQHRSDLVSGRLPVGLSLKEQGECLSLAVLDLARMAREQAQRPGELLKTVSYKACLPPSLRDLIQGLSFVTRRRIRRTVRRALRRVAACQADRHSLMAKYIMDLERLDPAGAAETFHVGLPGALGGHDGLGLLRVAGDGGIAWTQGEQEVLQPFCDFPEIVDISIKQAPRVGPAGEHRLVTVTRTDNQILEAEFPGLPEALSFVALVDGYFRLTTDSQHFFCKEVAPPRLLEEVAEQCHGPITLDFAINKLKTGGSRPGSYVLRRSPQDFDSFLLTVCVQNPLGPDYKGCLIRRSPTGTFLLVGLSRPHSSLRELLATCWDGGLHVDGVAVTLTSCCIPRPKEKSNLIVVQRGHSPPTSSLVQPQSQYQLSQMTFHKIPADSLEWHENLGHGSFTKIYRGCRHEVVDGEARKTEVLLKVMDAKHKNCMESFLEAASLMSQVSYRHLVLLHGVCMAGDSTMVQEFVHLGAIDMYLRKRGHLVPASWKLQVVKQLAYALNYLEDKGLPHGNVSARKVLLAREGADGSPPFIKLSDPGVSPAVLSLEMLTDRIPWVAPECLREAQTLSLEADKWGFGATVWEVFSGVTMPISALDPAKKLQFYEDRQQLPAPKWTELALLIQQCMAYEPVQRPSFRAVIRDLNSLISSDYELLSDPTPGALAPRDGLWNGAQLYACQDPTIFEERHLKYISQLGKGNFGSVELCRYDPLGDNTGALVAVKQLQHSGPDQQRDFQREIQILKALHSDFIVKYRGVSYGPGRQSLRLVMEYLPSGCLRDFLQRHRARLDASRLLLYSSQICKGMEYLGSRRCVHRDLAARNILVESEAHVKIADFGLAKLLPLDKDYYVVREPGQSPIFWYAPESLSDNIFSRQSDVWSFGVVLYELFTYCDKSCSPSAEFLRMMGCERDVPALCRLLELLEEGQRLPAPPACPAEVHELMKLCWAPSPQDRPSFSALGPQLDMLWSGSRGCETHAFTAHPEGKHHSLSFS
Procedure: as §1, §2, §3

JAK2 = JAK2 (Homo sapiens, UniProt O60674)
Sequence of JAK2 (O60674 whole entry): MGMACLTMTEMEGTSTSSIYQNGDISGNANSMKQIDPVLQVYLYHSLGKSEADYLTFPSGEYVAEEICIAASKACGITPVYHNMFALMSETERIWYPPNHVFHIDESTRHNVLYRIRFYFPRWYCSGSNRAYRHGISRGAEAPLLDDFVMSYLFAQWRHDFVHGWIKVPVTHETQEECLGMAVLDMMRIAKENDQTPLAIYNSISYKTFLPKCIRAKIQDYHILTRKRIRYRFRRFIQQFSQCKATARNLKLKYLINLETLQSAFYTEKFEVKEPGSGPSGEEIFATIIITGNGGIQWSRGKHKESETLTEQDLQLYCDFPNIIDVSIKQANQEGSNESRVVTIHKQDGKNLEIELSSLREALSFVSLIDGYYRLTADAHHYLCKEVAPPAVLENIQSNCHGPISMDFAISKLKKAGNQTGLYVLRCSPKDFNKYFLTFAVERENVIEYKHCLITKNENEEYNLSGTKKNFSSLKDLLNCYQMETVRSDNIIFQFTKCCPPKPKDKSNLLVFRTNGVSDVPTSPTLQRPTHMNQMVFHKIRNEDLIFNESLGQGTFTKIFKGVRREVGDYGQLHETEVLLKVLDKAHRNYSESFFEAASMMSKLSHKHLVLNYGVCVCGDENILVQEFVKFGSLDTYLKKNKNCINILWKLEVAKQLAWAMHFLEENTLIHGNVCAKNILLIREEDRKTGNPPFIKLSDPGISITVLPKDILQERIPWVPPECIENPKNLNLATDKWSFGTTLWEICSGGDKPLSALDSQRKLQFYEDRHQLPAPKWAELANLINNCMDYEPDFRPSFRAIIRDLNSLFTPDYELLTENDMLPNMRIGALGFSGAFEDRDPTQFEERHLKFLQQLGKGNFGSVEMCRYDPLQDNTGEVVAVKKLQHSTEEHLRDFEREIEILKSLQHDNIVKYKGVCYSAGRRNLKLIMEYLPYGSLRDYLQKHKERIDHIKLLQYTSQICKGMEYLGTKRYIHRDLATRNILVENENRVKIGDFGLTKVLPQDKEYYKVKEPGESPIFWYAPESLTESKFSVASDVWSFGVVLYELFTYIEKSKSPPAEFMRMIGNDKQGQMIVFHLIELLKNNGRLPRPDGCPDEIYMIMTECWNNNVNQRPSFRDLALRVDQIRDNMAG
Procedure: as §1, §2, §3

LRRK2 = LRRK2 (Homo sapiens, UniProt Q5S007)
Procedure: as §1, §2, §3

Q: For `Clc1cnc2nc1NCCCCCNCc1cccc(c1)N2` [Compound 8, 1^5-chloro-2,5,11-triaza-1(2,4)-pyrimidina-3(1,3)-benzenacyclodecaphane], which inhibition at 0.01 µM (RET) is on record?
A: < 25%

Q: And the inhibition at 0.01 µM (JAK1)?
A: < 25%

Q: And the inhibition at 0.01 µM (ITK)?
A: < 25%

Q: What about the inhibition at 0.01 µM (CDK7) of the same compound?
A: < 25%

Q: And the inhibition at 0.01 µM (TYK2)?
A: < 25%

Q: What about the inhibition at 0.01 µM (JAK3) of the same compound?
A: < 25%

Q: And the inhibition at 0.01 µM (JAK2)?
A: 25 to 49%

Q: What about the inhibition at 0.01 µM (LRRK2) of the same compound?
A: < 25%
